Data set [1] concerns the target T1, NK1 receptor (substance P receptor) (Homo sapiens, UniProt P25103).
T1 construct: expressed in transfected cells; host or cells: human lymphoblastoma cells (IM-9)
Briefly: NK1 receptor affinity, displacement of 125I-labelled substance P on IM-9 cells. The format is binding. To be noted: human lymphoblastoma cells (IM-9) with cloned NK1 receptors. Here is the method: Results of investigations into the compound according to the invention: The receptor affinity for the NK1 receptor (substance P receptor) is determined on human lymphoblastoma cells (IM-9) with cloned NK1 receptors, by measuring the displacement of ^125I-labelled substance P. The Ki values thus obtained show the efficacy of the compounds.

Each structure is given as a SMILES string. Where a name gives a salt, the structure may show the parent alone.

T1 sequence (P25103 whole entry): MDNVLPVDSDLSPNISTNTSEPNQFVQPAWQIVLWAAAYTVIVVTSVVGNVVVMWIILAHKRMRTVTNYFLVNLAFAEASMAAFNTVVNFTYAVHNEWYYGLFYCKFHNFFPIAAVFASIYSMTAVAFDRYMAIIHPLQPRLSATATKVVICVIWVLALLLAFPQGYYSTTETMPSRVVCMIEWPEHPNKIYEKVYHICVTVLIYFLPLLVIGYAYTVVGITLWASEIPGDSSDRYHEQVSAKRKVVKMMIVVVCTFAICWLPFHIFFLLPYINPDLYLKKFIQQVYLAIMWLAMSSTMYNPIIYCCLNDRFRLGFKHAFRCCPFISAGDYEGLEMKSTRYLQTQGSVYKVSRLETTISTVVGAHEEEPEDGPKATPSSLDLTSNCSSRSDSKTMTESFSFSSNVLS

In turn, `CN(CCc1cc(C(F)(F)F)cc(C(F)(F)F)c1)C(=O)C(c1ccccc1)N1CCN(C2=NCCN2)CC1` (centres unmarked) [Example 2] yielded a melting point of 163 to 173 °C. Besides, the inhibition constant Ki in data set [1] was determined as 0.3 nM.

As to `CN(CCc1cc(C(F)(F)F)cc(C(F)(F)F)c1)C(=O)[C@H](c1ccccc1)N1CCN(/C(=N/C(=O)c2ccccc2)N(C)C)CC1.Cl` [Example 27], the melting point was in the range of 124 to 128 °C. For the same compound, the affinity in data set [1], expressed as Ki, was 1.11 nM. For `CC(C)N/C(=N\C(=O)c1ccccc1)N1CCN(C(C(=O)N(C)CCc2cc(C(F)(F)F)cc(C(F)(F)F)c2)c2ccccc2)CC1` (centres unmarked) [Example 31], the Ki in data set [1] was 8.96 nM. `CN(CC(c1ccc(Cl)c(Cl)c1)N1CCN(C(=N)N)CC1)C(=O)Cc1cc(C(F)(F)F)cc(C(F)(F)F)c1` (centres unmarked) [Example 35]: the affinity in data set [1], expressed as Ki, was 0.78 nM. `C/N=C(\NC)N1CCN(C(C(=O)N(C)CCc2cc(C(F)(F)F)cc(C(F)(F)F)c2)c2ccccc2)CC1` (centres unmarked) [Example 9] registered a melting point of 126 to 140 °C. Further, the affinity in data set [1] corresponds to a Ki of 0.14 nM. In the case of `CC(C)/N=C(/NC(C)C)N1CCN(C(C(=O)N(C)CCc2cc(C(F)(F)F)cc(C(F)(F)F)c2)c2ccccc2)CC1` (racemic) [Example 4], the melting point was 176 to 186 °C (dec.). In data set [1], this compound registered a Ki of 0.53 nM.

The compound `Cc1ccc(/N=C(\Nc2ccc(C)cc2)N2CCN(C(C(=O)N(C)CCc3cc(C(F)(F)F)cc(C(F)(F)F)c3)c3ccccc3)CC2)cc1` (centres unmarked) [Example 28] gave a Ki in data set [1] of 4.16 nM. Turning to `CN(CCc1cc(C(F)(F)F)cc(C(F)(F)F)c1)C(=O)C(c1ccccc1)N1CCN(/C(=N/C(=O)c2ccccc2)NCc2ccccc2)CC1` (centres unmarked) [Example 33], the Ki in data set [1] is 13.2 nM. As for `CNC(=N)N1CCN(C(C(=O)N(C)CCc2cc(C(F)(F)F)cc(C(F)(F)F)c2)c2ccccc2)CC1` (centres unmarked) [Example 3], the melting point was 69 to 79 °C. Also, in data set [1], the affinity, expressed as Ki, was 0.2 nM. As to `CN(CCc1cc(C(F)(F)F)cc(C(F)(F)F)c1)C(=O)C(c1ccccc1)N1CCN(C(=N)N2CCOCC2)CC1` (centres unmarked) [Example 30], the Ki in data set [1] was 0.17 nM. Compound `CN(C)C(=N)N1CCN(C(C(=O)N(C)CCc2cc(C(F)(F)F)cc(C(F)(F)F)c2)c2ccccc2)CC1` (centres unmarked) [Example 10] gave a Ki in data set [1] of 0.12 nM. This Ki and that of the compound before are within 1.5-fold of each other.

`CN(CCc1cc(C(F)(F)F)cc(C(F)(F)F)c1)C(=O)[C@H](c1ccccc1)N1CCN(/C(=N/C(=O)c2ccccc2)Nc2ccccc2)CC1` [Example 29]: in data set [1], affinity was put at a Ki of 0.87 nM. Against the preceding compound, the Ki is about 7.2-fold higher. With `CC(C)NC(=N)N1CCN(C(C(=O)N(C)CCc2cc(C(F)(F)F)cc(C(F)(F)F)c2)c2ccccc2)CC1` (centres unmarked) [Example 32], in data set [1], the Ki was 0.2 nM. Regarding `CN(CCc1cc(C(F)(F)F)cc(C(F)(F)F)c1)C(=O)C(c1ccccc1)N1CCN(C(=N)Nc2ccccc2)CC1` (centres unmarked) [Example 12], the melting point is 240 to 245 °C (dec.). In addition, the Ki in data set [1] amounted to 0.32 nM. Regarding `CN(CCc1cc(C(F)(F)F)cc(C(F)(F)F)c1)C(=O)C(c1ccccc1)N1CCN(C(=N)N)CC1` (racemic) [Example 1, (R,S)-1-Amidino-4-[2-phenylacetic acid-N-methyl-N-(3,5-bis-trifluoromethyl-phenyl-ethyl)-amide]-piperazine, dihydrochloride], the Ki in data set [1] was determined as 0.45 nM. This counts as sub-nanomolar.

Take `CCN/C(=N/C(C)(C)C)N1CCN(C(C(=O)N(C)CCc2cc(C(F)(F)F)cc(C(F)(F)F)c2)c2ccccc2)CC1` (centres unmarked) [Example 5]: the melting point is 174 to 184 °C (dec.). In data set [1], this compound showed a Ki of 6.28 nM. Take `CN(CCc1cc(C(F)(F)F)cc(C(F)(F)F)c1)C(=O)C(c1ccccc1)N1CCN(/C(=N\C2CCCCC2)NC2CCCCC2)CC1` (centres unmarked) [Example 7]: the melting point was 182 to 188 °C (dec.). In addition, the Ki in data set [1] is 1.45 nM. `CN(CCc1cc(C(F)(F)F)cc(C(F)(F)F)c1)C(=O)C(c1ccccc1)N1CCN(/C(=N\C2CCCCC2)N(C)C2CCCCC2)CC1` (centres unmarked) [Example 6] had a Ki in data set [1] of 0.88 nM. The compound `CN(CCc1cc(C(F)(F)F)cc(C(F)(F)F)c1)C(=O)C(c1ccccc1)N1CCN(C(=N)N)CC1` (racemic) (as salt: hydrochloride) [Example 1, (R,S)-1-Amidino-4-[2-phenylacetic acid-N-methyl-N-(3,5-bis-trifluoromethyl-phenyl-ethyl)-amide]-piperazine, dihydrochloride] registered a melting point of 128 to 138 °C. `CN(CCc1cc(C(F)(F)F)cc(C(F)(F)F)c1)C(=O)C(c1ccccc1)N1CCN(/C(N)=N/Cc2ccccc2)CC1` (centres unmarked) [Example 34] showed a Ki in data set [1] of 0.37 nM. In other words, the sub-nanomolar range.

In data set [1], `CN(CCc1cc(C(F)(F)F)cc(C(F)(F)F)c1)C(=O)[C@H](c1ccccc1)N1CCN(C2=NCCN2C)CC1` [Example 8] gave a Ki of 0.19 nM.

The values are drawn from patent publication US6455700B1, “Process for preparing guanidine and amidine derivatives” (Boehringer Ingelheim Pharma KG., priority 1998, dated 2002).
